Data on 17 compounds can be found in patent EP4570805A1, “TRICYCLIC COMPOUNDS AND MEDICAL USE THEREOF” (Chia Tai Tianqing Pharmaceutical Group Co., Ltd., priority 2022, dated 2024).

One assay concerns Capan-1 cells. Put plainly: Inhibitory activity for Capan-1 cell proliferation (CCK-8). Format: cell-based. Conditions: 5 days incubation. Here is the method: Capan-1 cells in a well-growing state were collected into a centrifuge tube, adjusted to a cell density of 1.5 × 10^4 cells/mL, and inoculated onto a 96-well plate (100 µL/well). […] Meanwhile, a control was set. After 5 days of incubation in the cell incubator, the assay reagent CCK-8 (manufacturer: Dojindo Laboratories, Beijing; 10 µL/well) was added. After 4 h of incubation in the cell incubator, the absorbance was measured at 450 nm on a PerkinElmer Envision microplate reader. A four-parameter analysis was performed, a dose-response curve was fitted, and IC50 was calculated.

Another assay deals with AsPc-1 cells. Put plainly: Inhibitory activity for AsPc-1 cell proliferation (CCK-8). Type of assay: cell-based, human. The note with it: Homo sapiens, ASPC1, 72 h incubation. Here is the method:
AsPc-1 cells in a well-growing state were collected into a centrifuge tube, adjusted to a cell density of 3 × 10^4 cells/mL, and inoculated onto a 96-well plate (100 µL/well). The compounds were added using a nanoliter pipettor such that the final concentrations of the compounds were 5000 nM-0.31 nM (the addition was performed in duplicate). Meanwhile, a control was set. After 72 h of incubation in the cell incubator, the assay reagent CCK-8 (manufacturer: Dojindo Laboratories; 10 µL/well) was added. After 3 h of incubation in the cell incubator, the absorbance was measured at 450 nm on a PerkinElmer Envision microplate reader. A four-parameter analysis was performed, a dose-response curve was fitted, and IC50 was calculated.

As to `C#Cc1c(F)ccc2cc(O)cc(-c3nc4c5c(nc(OCC67CCCN6CC(F)C7)nc5c3F)N(CC)C(C)CO4)c12` (single isomer, unassigned) [Example 32], the IC50 (usually the concentration at which inhibition is half-maximal) in the assay with Capan-1 cells (Homo sapiens, CAPAN-1, 120 h) is less than 100 nM; in the assay with AsPc-1 cells, not above 100 nM.
The like results for `C#Cc1c(F)ccc2cc(O)cc(-c3nc4c5c(nc(OCC67CCCN6CC(F)C7)nc5c3F)N(C(C)c3cccnc3N)CCO4)c12` (single isomer, unassigned) [Example 36] were, in that order, less than 100 nM and not above 100 nM.
`C#Cc1c(F)ccc2cc(O)cc(-c3nc4c5c(nc(OC[C@@H]6C[C@@H](F)CN6C)nc5c3F)N(C(C)c3cccnc3N)[C@@H](C)CO4)c12` (single isomer, unassigned) [Example 147] returned an IC50 in the assay on Capan-1 cells of less than 100 nM.
In the assay with Capan-1 cells (Homo sapiens, CAPAN-1, 120 h), `C#Cc1c(F)ccc2cc(O)cc(-c3nc4c5c(nc(OC[C@@H](C)N(C)C)nc5c3F)N(C(C)c3cccnc3N)[C@@H](C)CO4)c12` (single isomer, unassigned) [Example 152] displayed a half-maximal inhibitory concentration (IC50) of less than 100 nM.
Same read-out and setting: to `C#Cc1c(F)ccc2cc(O)cc(-c3nc4c5c(nc(OCCCN6CCOCC6)nc5c3F)N(C(C)c3cccnc3N)[C@@H](C)CO4)c12` (single isomer, unassigned) [Example 154] belongs less than 100 nM; to `CC(c1cccnc1N)N1c2nc(OC[C@@H]3CCCN3C)nc3c(F)c(-c4ccc(F)c5sc(N)c(C#N)c45)nc(c23)OC[C@@H]1C` (single isomer, unassigned) [Example 158], less than 100 nM; to `Cc1cccc(-c2nc3c4c(nc(OC[C@@H]5CCCN5C)nc4c2F)N(C(C)c2cccnc2N)[C@@H](C)CO3)c1C(F)(F)F` (single isomer, unassigned) [Example 160], less than 100 nM.
Regarding `C#Cc1c(F)ccc2cc(N)cc(-c3nc4c5c(nc(OCC67CCCN6CCC7)nc5c3F)N(C(C)c3cccnc3N)[C@@H](C)CO4)c12` (single isomer, unassigned) [Example 164], the half-maximal inhibitory concentration (IC50) in the assay with AsPc-1 cells is not above 100 nM.
`C#Cc1c(F)ccc2cc(O)cc(-c3nc4c5c(nc(OCCN6CCCCC6)nc5c3F)N(C(C)c3cccnc3N)[C@@H](C)CO4)c12` (single isomer, unassigned) [Example 166] displayed an IC50 in the assay with Capan-1 cells (Homo sapiens, CAPAN-1, 120 h) of less than 100 nM.
`C#Cc1c(F)ccc2cc(O)cc(-c3nc4c5c(nc(OCCN6CCN(C)CC6)nc5c3F)N(C(C)c3cccnc3N)[C@@H](C)CO4)c12` (single isomer, unassigned) [Example 168]: in the assay on Capan-1 cells (Homo sapiens, CAPAN-1, 120 h), the IC50 is less than 100 nM.
On the same count and under the same terms, the value for `C#Cc1c(F)ccc2cc(O)cc(-c3nc4c5c(nc(OCCCN6CCN(C)CC6)nc5c3F)N(C(C)c3cccnc3N)[C@@H](C)CO4)c12` (single isomer, unassigned) [Example 170] was less than 100 nM; that for `C#Cc1c(F)ccc2cc(O)cc(-c3nc4c5c(nc(OC[C@@H](C)N6CCC6)nc5c3F)N(C(C)c3cccnc3N)[C@@H](C)CO4)c12` (single isomer, unassigned) [Example 174] was less than 100 nM.
`C#Cc1c(F)ccc2cc(O)cc(-c3nc4c5c(nc(OC[C@@]67CCCN6CC(=C)C7)nc5c3F)N(C(C)c3cccnc3N)[C@@H](C)CO4)c12` (single isomer, unassigned) [Example 178] returned an IC50 with AsPc-1 cells not above 100 nM.
In the assay on Capan-1 cells (Homo sapiens, CAPAN-1, 120 h), `C#Cc1c(F)ccc2cc(O)cc(-c3nc4c5c(nc(OC[C@@]67CCCN6C[C@H](F)C7)nc5c3F)N(C(C)c3cccnc3N)[C@H](C)CO4)c12` (stereo partly shown) [Example 41] yielded a concentration for half-maximal inhibition (IC50) of less than 100 nM.
Regarding `C#Cc1c(F)ccc2cc(O)cc(-c3nc4c5c(nc(OC[C@@]67CCCN6C[C@H](F)C7)nc5c3F)N(C(C)C)C(C)CO4)c12` (stereo partly shown) [Example 49], in the assay on AsPc-1 cells, the IC50 is not above 100 nM.
Turning to `C#Cc1c(F)ccc2cc(O)cc(-c3nc4c5c(nc(OC[C@@]67CCCN6C[C@H](F)C7)nc5c3F)N(CC(F)F)C(C)CO4)c12` (stereo partly shown) [Example 50], the IC50 in the assay with Capan-1 cells (Homo sapiens, CAPAN-1, 120 h) was less than 100 nM.
Compound `CC(c1cccnc1N)N1c2nc(OC[C@@]34CCCN3C[C@H](F)C4)nc3c(F)c(-c4ccc(F)c5sc(N)c(C#N)c45)nc(c23)OC[C@@H]1C` (stereo partly shown) [Example 81] displayed an IC50 in the assay on Capan-1 cells (Homo sapiens, CAPAN-1, 120 h) of less than 100 nM.
